Data from publication PMC6979384, “Characterization of the plant homeodomain (PHD) reader family for their histone tail interactions” (Epigenetics & Chromatin, 2020).

Key:
Test in all cases: Histone peptide microarray
Type in all cases: binding, human
ING5 = details: sheet "Array Heatmap"; GST-tagged ING5; arrays performed twice, total replicate number n = 4
Procedure, shortened: (§1)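 GST-tagged PHD finger readers were expressed, purified and applied at 0.5 μM to a microarray of 293 synthetic histone peptides carrying single or combinatorial PTMs, using an optimized protocol. Binding signals are averages with standard deviation from 4 replicates.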

CHD4 (PPCC) = details: sheet "Array Heatmap"; GST-tagged CHD4 (PPCC); arrays performed twice, total replicate number n = 4
Procedure, shortened: as §1

ING4 = details: sheet "Array Heatmap"; GST-tagged ING4; arrays performed twice, total replicate number n = 4
Procedure, shortened: as §1

BAZ2B = details: sheet "Array Heatmap"; GST-tagged BAZ2B; arrays performed twice, total replicate number n = 4
Procedure, shortened: as §1

KDM5B (3) = details: sheet "Array Heatmap"; GST-tagged KDM5B (3); arrays performed twice, total replicate number n = 4
Procedure, shortened: as §1

MLL5 = details: sheet "Array Heatmap"; GST-tagged MLL5; arrays performed twice, total replicate number n = 4
Procedure, shortened: as §1

DIDO1 = details: sheet "Array Heatmap"; GST-tagged DIDO1; arrays performed twice, total replicate number n = 4
Procedure, shortened: as §1

TRIM66 (PB) = details: sheet "Array Heatmap"; GST-tagged TRIM66 (PB); arrays performed twice, total replicate number n = 4
Procedure, shortened: as §1

RAG2 = details: sheet "Array Heatmap"; GST-tagged RAG2; arrays performed twice, total replicate number n = 4
Procedure, shortened: as §1

BPTF (PB) = details: sheet "Array Heatmap"; GST-tagged BPTF (PB); arrays performed twice, total replicate number n = 4
Procedure, shortened: as §1

SP140L = details: sheet "Array Heatmap"; GST-tagged SP140L; arrays performed twice, total replicate number n = 4
Procedure, shortened: as §1

ING2 = details: sheet "Array Heatmap"; GST-tagged ING2; arrays performed twice, total replicate number n = 4
Procedure, shortened: as §1

ING3 = details: sheet "Array Heatmap"; GST-tagged ING3; arrays performed twice, total replicate number n = 4
Procedure, shortened: as §1

PHF13 = details: sheet "Array Heatmap"; GST-tagged PHF13; arrays performed twice, total replicate number n = 4
Procedure, shortened: as §1

KDM5A (1) = details: sheet "Array Heatmap"; GST-tagged KDM5A (1); arrays performed twice, total replicate number n = 4
Procedure, shortened: as §1

KDM4C (TTP) = details: sheet "Array Heatmap"; GST-tagged KDM4C (TTP); arrays performed twice, total replicate number n = 4
Procedure, shortened: as §1

PHRF1 (RP) = details: sheet "Array Heatmap"; GST-tagged PHRF1 (RP); arrays performed twice, total replicate number n = 4
Procedure, shortened: as §1

PHF2 = details: sheet "Array Heatmap"; GST-tagged PHF2; arrays performed twice, total replicate number n = 4
Procedure, shortened: as §1

MORC3 (CW) = details: sheet "Array Heatmap"; GST-tagged MORC3 (CW); arrays performed twice, total replicate number n = 4
Procedure, shortened: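 GST-tagged PHD readers, 0.5 μM, probed on a microarray of 293 synthetic histone peptides carrying single or combinatorial PTMs (optimized Petell protocol). Signals are averaged over 4 replicates and expressed as relative binding.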

PHF21A = details: sheet "Array Heatmap"; GST-tagged PHF21A; arrays performed twice, total replicate number n = 4
Procedure, shortened: as §1

AIRE (PP) = details: sheet "Array Heatmap"; GST-tagged AIRE (PP); arrays performed twice, total replicate number n = 4
Procedure, shortened: as §1

KDM5B (1) = details: sheet "Array Heatmap"; GST-tagged KDM5B (1); arrays performed twice, total replicate number n = 4
Procedure, shortened: as §1

CHD5 (PCC) = details: sheet "Array Heatmap"; GST-tagged CHD5 (PCC); arrays performed twice, total replicate number n = 4
Procedure, shortened: as §1

ING1 = details: sheet "Array Heatmap"; GST-tagged ING1; arrays performed twice, total replicate number n = 4
Procedure, shortened: as §1

KDM7A = details: sheet "Array Heatmap"; GST-tagged KDM7A; arrays performed twice, total replicate number n = 4
Procedure, shortened: as §1

TAF3 = details: sheet "Array Heatmap"; GST-tagged TAF3; arrays performed twice, total replicate number n = 4
Procedure, shortened: as §1

PHF23 = details: sheet "Array Heatmap"; GST-tagged PHF23; arrays performed twice, total replicate number n = 4
Procedure, shortened: as §1

CHD5 (PPCC) = details: sheet "Array Heatmap"; GST-tagged CHD5 (PPCC); arrays performed twice, total replicate number n = 4
Procedure, shortened: as §1

DPF2 (PPC2W2) = details: sheet "Array Heatmap"; GST-tagged DPF2 (PPC2W2); arrays performed twice, total replicate number n = 4
Procedure, shortened: as §1

PHF8 = details: sheet "Array Heatmap"; GST-tagged PHF8; arrays performed twice, total replicate number n = 4
Procedure, shortened: as §1

KDM5A (3) = details: sheet "Array Heatmap"; GST-tagged KDM5A (3); arrays performed twice, total replicate number n = 4
Procedure, shortened: as §1

Substance: H3.3K27me3: H3.3 15-34 [Peptide H3.3K27me3]
- Array Heatmap signal, ING5 (ING5): 0.4224
- Array Heatmap signal, CHD4 (PPCC) (CHD4 (PPCC)): 0.5987
- Array Heatmap signal, ING4 (ING4): 0.5176
- Array Heatmap signal, BAZ2B (BAZ2B): 0.5914
- Array Heatmap signal, KDM5B (3) (KDM5B (3)): 0.5372
- Array Heatmap signal, MLL5 (MLL5): 0.5722
- Array Heatmap signal, DIDO1 (DIDO1): 0.7249
- Array Heatmap signal, TRIM66 (PB) (TRIM66 (PB)): 0.6617
- Array Heatmap signal, RAG2 (RAG2): 0.2705
- Array Heatmap signal, BPTF (PB) (BPTF (PB)): 0.4048
- Array Heatmap signal, SP140L (SP140L): 0.3923
- Array Heatmap signal, ING2 (ING2): 0.6109
- Array Heatmap signal, ING3 (ING3): 0.5349
- Array Heatmap signal, PHF13 (PHF13): 0.7006
- Array Heatmap signal, KDM5A (1) (KDM5A (1)): 0.5261
- Array Heatmap signal, KDM4C (TTP) (KDM4C (TTP)): 0.5632
- Array Heatmap signal, PHRF1 (RP) (PHRF1 (RP)): 0.5177
- Array Heatmap signal, PHF2 (PHF2): 0.5285
- Array Heatmap signal, MORC3 (CW) (MORC3 (CW)): 0.4234
- Array Heatmap signal, PHF21A (PHF21A): 0.5192
- Array Heatmap signal, AIRE (PP) (AIRE (PP)): 0.536
- Array Heatmap signal, KDM5B (1) (KDM5B (1)): 0.6871
- Array Heatmap signal, CHD5 (PCC) (CHD5 (PCC)): 0.8198
- Array Heatmap signal, ING1 (ING1): 0.5843
- Array Heatmap signal, KDM7A (KDM7A): 0.3849
- Array Heatmap signal, TAF3 (TAF3): 0.2913
- Array Heatmap signal, PHF23 (PHF23): 0.6091
- Array Heatmap signal, CHD5 (PPCC) (CHD5 (PPCC)): 0.6383
- Array Heatmap signal, DPF2 (PPC2W2) (DPF2 (PPC2W2)): 0.7311
- Array Heatmap signal, PHF8 (PHF8): 0.4126
- Array Heatmap signal, KDM5A (3) (KDM5A (3)): 0.4949
